One data set deals with Rab7, Cdc42 and Ras. The experiment in a line: Association and dissociation time course of BODIPY-FL GTP (real-time flow cytometry). The data set is classed as binding. The protocol:
GTPases were bound to glutathione-coated microsphere beads overnight and unbound GTPases were removed by washing. The association and dissociation of BODIPY^- FL GTP was analyzed with the Accuri C6 flow cytometer in real-time. The initial 30 s set the baseline fluorescence. […] When the fluorescence plateau was reached, GTP at 50 μM was added to induce BODIPY^- FL GTP dissociation. […] All the concentrations given are the final concentrations.

For data set [1], the system named is EGFR degradation regulated by Rab GTPases, SCC-12F cells. The experiment in a line: EGFR degradation in SCC-12F cells. Type of data set: cell-based. The following applies: EGF 20 nM, 0-120 min, versus DMSO. The protocol: SCC-12F cells were seeded in 12-well plates at 0.12 x 10^6 cells/well and allowed to attach overnight. On the day of the experiment, the cells were starved in serum free medium containing 25 μg/mL cycloheximide for 2 h before compounds at different concentrations were added. The cells were treated with compound or DMSO for 0.5 h followed by the addition of ligand EGF at 20 nM. At time 0, 15, 30, 60, and 120 min, the suspension medium was removed and the cells were quickly washed with cold PBS and frozen at -80°C. For electrophoresis and blotting, CellLyticM Cell Lysis buffer containing protease inhibitor cocktails was added to the frozen cells and the protein concentrations were quantified using the Bradford assay. For SDS-PAGE, 10 μg of protein was loaded on each lane. After transblotting, the nitrocellulose membrane was probed with Anti-EGFR and Anti-actin primary antibody and secondary goat anti-rabbit IgG antibody with conjugated peroxidase. Actin served as a loading control. After adding the substrate SuperSignal West Dura, specific band signal was detected with ChemiDoc XRS+ molecular imager and the intensity was quantified using Image Lab software. Experiments were carried out either in duplicate and repeated or in triplicate. Results are given as the ratios of EGFR/actin at time t and EGFR/actin at time 0.

In data set [2] the test system is integrin VLA-4 on U937 FPRΔST cells. Briefly: Integrin activation assay (LDV-FITC binding). The settings on record: LDV-FITC 4 nM, fMLFF 100 nM. The data set is classed as cell-based. The protocol:
The procedure followed the protocols described previously. U937 FPRΔST cells (0.4~0.8 x 10^6 cells/mL) were continuously stirred with a magnetic stir bar at 500 rpm in a test tube. The fluorescence was recorded on a FACScan flow cytometer. The baseline fluorescence of the cells was established for 30 s. Then LDV-FITC at 4 nM was added. After the fluorescence stabilized at ~120 s, the chemotactic ligand fMLFF at 100 nM was added for stimulation. […] All the concentrations given were the final concentrations. The percent inhibition was calculated according to Equation 1 (Supporting Information).

The test system of another data set is H358 cells. The experiment in a line: CellTiter-Glo viability assay. Type of data set: cell-based. The following applies: 48 h, compared with U937 FPRΔST control cells. The protocol: Cells were plated in a 96-well plate at 2000 cells per well and allowed to incubate overnight. Compound 1 or the same volume of DMSO was added on the second day. Viability was examined after 48 h. Data were collected from at least triplicate samples. Results were reported as viability treated/viability untreated (DMSO control). To evaluate apoptosis, the PE Annexin V Apoptosis Kit I was used. In 6-well plates, H358 cells were seeded at 50% confluence, while U937 FPRΔST cells were at 0.02 x 10^6 /mL. After overnight incubation, the cells were treated with compound 1 or DMSO. At 24 h or 48 h, cells were washed with PBS, and resuspended in 100 uL annexin-V binding buffer. After staining with annexin-V-FITC and 7-AAD, cells were analyzed on an Accuri C6 flow cytometer. At least 7,000 cells were measured per individual sample. The annexin^+AAD^- cells are defined as cells undergoing apoptosis. Data were collected from duplicate samples and the experiments were repeated. Results are given as the ratios of the apoptotic populations between the compound-treated and the DMSO-treated cells.

Data set [3] deals with phospho-Erk 1/2 in H358 cells. Briefly: Western blotting of Erk1/2 phosphorylation downstream of Ras signaling. Type of data set: cell-based. The following applies: 10 μM, 1 h; complete medium or FBS stimulated after starvation. How it is done: H358 lung cancer cells were seeded at 10^6 cells/well in 6–well plates. […] Then cells were stimulated with 10% FBS for 5 min and lysed in 150 μl RIPA buffer. Cell lysates were processed for SDS-PAGE, transferred to PVDF membranes and probed with a monoclonal antibody directed against phospho-Erk 1/2 (from Cell Signaling) and a monoclonal antibody directed against Erk 1/2 (from Cell Signaling) followed by an HRP labeled ECL anti-mouse IgG (from GE Healthcare).

The nature of another data set: Stability in PBS. Type of data set: physicochemical. The following applies: 23 °C, after 48 hours. The protocol: page 7: conclusion, the available data support the idea that compound CID1067700 has non-classical competitive character. […] Solubility was measured in phosphate buffered saline (PBS) at room temperature (23 °C). PBS by definition is 137 mM NaCl, 2.7 mM KCl, 10 mM sodium phosphate dibasic, 2 mM potassium phosphate [monobasic and a pH of 7.4. Detection was based on UV absorbance. […] Solubility was also assessed in the each of the four media used in the individual assays. […] Table 1S. […] Stability, depicted as closed circles in the graph, was assessed at room temperature (23 °C) in PBS (no antioxidants or other protectants and DMSO concentration below 0.1%). Stability data is depicted in Fig. S8 showing the loss of compound with time over a 48 h period with a minimum of 6 time points and providing the percent remaining compound at end of the 48 h period. Under these conditions, 77% of 1 remains after 48 hours. The degradation has not been further characterized.

A further data set addresses Rac1 (Homo sapiens, UniProt P63000). Briefly: Multiplex bead-based flow cytometry dose-response of fluorescent guanine nucleotide binding.

Each structure is given as a SMILES string.

Method for Rac1: Briefly, individual GST-GTPases were separately attached to glutathione microsphere beads that were labeled with varying intensity of red fluorescent dye, and subsequently combined. The buffer contains 30 mM HEPES (pH 7.2), 150 mM KCl, 20 mM NaCl, 0.1% BSA, 1 mM DTT, 1 mM EDTA and 0.1% NP-40. For Rho A and Rac1, 1 mM EDTA was replaced with 1 mM MgCl2 to stabilize the protein. […] To study whether the compounds are slow binders, BODIPY^- FL GTP was added either immediately or 2 h after compound addition. […] The curves were fitted to the sigmoidal dose-response equation using GraphPad Prism. Percent response was calculated as the ratio of (sample MCF–negative control MCF) / (positive control MCF–negative control MCF).

With `CC1(C)Cc2c(sc(NC(=S)NC(=O)c3ccccc3)c2C(=O)O)CO1` [Compound 1], the “covalent bond formation with GTPases / reversibility” value in the data set with Rab7, Cdc42 and Ras (50 μM overnight, extensive washing) is on record as “did not form a covalent bond”. Besides, the “dissociation of pre-bound BODIPY-FL GTP” value in the data set with Rab7, Cdc42 and Ras (compound 50 μM added at plateau) is reported as “able to induce dissociation”. Besides, the “binding of BODIPY-FL GTP in the presence of compound” value with Rab7, Cdc42 and Ras (compound 50 μM, BODIPY-FL GTP 100 nM) is “decreased”. The EGFR degradation result in data set [1] is reported as “delayed EGFR degradation”. Also, the “integrin VLA-4 activation (LDV-FITC binding after fMLFF)” value in data set [2] was “caused diminished binding”. For the same compound, in the data set on H358 cells, the viability result is “decreased the viability of H358 cells more than the U937 FPRΔST cells”. Also, the “phosphorylation level of Erk 1/2” value in data set [3] is on record as “decreased”. This compound came in with a compound remaining in the data set “Stability in PBS” of 77%. Besides, the EC50 worked out at 62 ± 49 nM on Rac1 (EC50 Rac1, BODIPY-FL GTP binding, 2 h at 4°C, 1 mM MgCl2) and 99 nM on Rac1 (EC50 Rac1, concentration dependence on BODIPY-FL GDP).

The values above are taken from article PMC4527730, “A Pan-GTPase Inhibitor as a Molecular Probe” (PLoS ONE, 2015).
